Legend:
[1] = tested on: U87MG intracranial glioma xenografts; assay: U87MG intracranial xenograft, TMZ and CRAd-S-pk7 combination survival; format: in vivo, mice
Protocol: FIGS. 11A, 11B and 11C show in vivo anti-tumor activity of CRAd-S-pk7 in combination with TMZ according to one embodiment. (FIG. 11A) Five consecutive injections of TMZ at 70 mg/kg/day (▾) achieve 100% survival for 80 days post U87MG implantation, whereas 5 TMZ injections at 10 mg/kg/day (∘) had significant increase in survival compared to mock treatment ( )(p<0.05).
Because temozolomide (TMZ) is the standard of care for patients with GBM, the efficacy of TMZ and CRAd-S-pk7 combination was evaluated in vivo in mice with U87MG intracranial (i.c.) glioma xenografts. To employ a dose that resembles the partial therapeutic effect of TMZ seen in the clinical scenario, different doses of TMZ were tested. Based on those studies, a dose of 10 mg/kg/day×5 days of intraperitoneal (i.p.) TMZ was chosen to study the efficacy of a TMZ and CRAd-S-pk7 combination treatment, since this dose led to an increase in survival but remained non-curative (FIG. 11A) (log-rank test, p<0.05). Additionally, different doses of i.c. CRAd-S-pk7 injections were tested to investigate which dose provides an increase in survival that could be further enhanced by the addition of co-adjuvant TMZ. A dose of 3×10^9 vp/mouse×2 injections of CRAd-S-pk7 was chosen for testing the therapeutic effects of TMZ+CRAd-S-pk7 combination, since it led to a partial efficacy that could be further enhanced (FIG. 11B) (log-rank test p<0.05).
Based on the above findings, the combination of TMZ and CRAd-S-pk7 was tested for efficacy in terms of survival (FIG. 11C). The combination of TMZ (10 mg/kg/day×5) plus two i.c. injections of CRAd-S-pk7 3×10^9 vp/mouse led to a 90% of long term survivors (>90 days) (LTS). […] Consistent with the finding of an additive cytotoxic effect of TMZ and CRAd-S-pk7 in vitro experiments, this treatment combination led to an improved survival in mice bearing intracranial human glioma xenografts.

[2] = tested on: NSCs (HB1.F3-CD); assay: CRAd-S-pk7 replication in NSCs treated with XRT-TMZ (E1A qPCR, titer); format: cell-based, human; conditions: day 4; TMZ 100 µM
Protocol: FIGS. 41A, 41B and 41C show evaluation of CRAd-Survivin-pk7 (CRAd-S-pk7) replication in neural stem cells (NSCs) treated with XRT-TMZ according to one embodiment. Viral replication of CRAd-S-pk7 was measured by quantitative real-time polymerase chain reaction and presented as a number of viral E1A copies per nanogram of DNA from infected NSCs. (FIG. 41A, 41B): Viral replication was evaluated daily up to 96 hours after treatment with 0, 10, 50, or 100 µM TMZ (FIG. 41A) and 0, 2, or 4 Gy of XRT (FIG. 41B). (FIG. 41C): CRAd-S-pk7 viral titer levels 96 hours after XRT-TMZ treatment of infected NSCs. […] Abbreviations: DMSO, dimethyl sulfoxide; IU, infectious units; TMZ, temozolomide; XRT, radiation therapy.
To detect the level of viral replication, NSCs were infected with 50 IU of CRAd-S-pk7 and treated with XRT-TMZ. […] Adenoviral E1A gene expression was quantified via qRTPCR using iQ SYBR Green supermix (Bio-Rad, Hercules, Calif., http://www.bio-rad.com), using primers and protocol previously described (Sonabend et al. 2009). The quantification of infectious viral progeny of NSCs was conducted using the Adeno-X rapid titer kit protocol (Clontech, Mountain View, Calif., http://www.clontech.com) as described elsewhere (Thaci et al. 2012). The titration unit (IU/ml) values quantified through this protocol are similar to plaque-forming units. […]

With `Cn1nnc2c(C(N)=O)ncn2c1=O` [TMZ, temozolomide] the median survival ([1]; TMZ 10 mg/kg/day×5 alone or CRAd-S-pk7 3×10^9 vp/mouse×2 alone) was 51 days, the “long term survivors (>90 days) (LTS)” value ([1]; TMZ 10 mg/kg/day×5 i.p., CRAd-S-pk7 3×10^9 vp/mouse×2 i.c., alone or combined) was 7% and the “survival for 80 days post U87MG implantation” value ([1]; TMZ 70 mg/kg/day, five consecutive injections) was 100%. The “decrease in E1A copies per nanogram of DNA” value [2] was 3 fold.
